Holding throughout (type): cell-based
One experiment relates to Candida albicans. The experiment can be described thus: NCCLS broth dilution combination study in yeast (modified M27-T), Candida albicans isolate. As to conditions: for Antifungal activity of test compound alone: C. albicans isolate; for Interaction with fluconazole, C. albicans / Interaction with terbinafine, C. albicans: interpretation of FICI, MIC = 80% inhibition of growth, 48 hours; for Interaction with terbinafine, C. albicans: 37°, pH 7.0, isolate susceptible to both drugs. The protocol:
(§1) Combination studies are performed with Candida species, using the NCCLS standard assay (National Committee for Clinical Laboratory Standards [1995], Reference method for broth dilution antifungal susceptibility testing of yeasts (Tentative Standard M27-T, NCCL, Villanova, Pa., U.S.A.), modified as follows: the assay is effected in RPMI 1640 medium without NaHCO3 but with L-glutamine buffered with MOPS at pH 7.0 at 37°. The inoculum is 2.5×10^3 cfu/ml. Incubation times are 48 hours. The MIC is defined as the lowest drug concentration causing 80% inhibition of fungal growth.
(§2) The reference test compound (either terbinafine or fluconazole) is tested in a full concentration range in the absence or presence of the other test drug at 1, 2, 4, and 8 μg/ml.
(§3) Interaction between the drugs is analysed by calculation of the Fractional Inhibitory Concentration Index (FICI), defined as: FICI=[(MIC A in combination)/MIC A]+[MIC B in combination]/MIC B]
(§4) Interpretation of FICI in terms of interaction between the two drugs is as follows: FICI=0.5: synergy; <0.5<FICI=1: additive; 1<FICI=2: indifferent; 2<FICI: antagonism (in practical terms, synergy by this definition means that the MICs of both drugs are reduced by at least 2 dilution steps when used in combination).
(§5) The ability of the four test compounds 33-epichloro,33-desoxyascomycin, 5,6-dehydroascomycin, ascomycin and tacrolimus to influence the antifungal activity of terbinafine and fluconazole was examined in a Candida albicans isolate susceptible to both drugs, and in one isolate of Candida krusei which is resistant to terbinafine and poorly responsive to fluconazole.
In general terms: In broth dilution the organism is exposed to a series of concentrations in liquid medium.

The next experiment relates to Candida krusei. As to the kind of experiment: NCCLS broth dilution combination study in yeast (modified M27-T), Candida krusei isolate. As to conditions: for Antifungal activity of test compound alone: C. krusei isolate; for Interaction with terbinafine as reference compound (in words): against Candida krusei; for Interaction with fluconazole, C. krusei / Interaction with terbinafine, C. krusei: interpretation of FICI, MIC = 80% inhibition of growth, 48 hours; for Interaction with fluconazole, C. krusei: isolate poorly responsive to fluconazole; for Interaction with terbinafine, C. krusei: isolate resistant to terbinafine. As to the method: as §1, §2, §3, §4, §5

Experiment [1] has as its system Microsporum canis (strain NFI 5167). The experiment can be described thus: Checkerboard combination study in dermatophyte, modified NCCLS microdilution M38-P. The note with it: for MIC single drug: MIC = lowest concentration causing 80% inhibition of fungal growth; for MIC single drug / MIC combination: unit assumed; for MIC combination: terbinafine hydrochloride combined with 33-epichloro,33-desoxyascomycin, MIC = 80% inhibition. The protocol:
Minimum Inhibitory Concentrations (MIC) against dermatophytes are determined in 96-well assay trays by a modification of the NCCLS microdilution procedure M38-P (National Committee for Clinical Laboratory Standards, Reference method for broth antifungal susceptibility testing of conidium-forming filamentous fungi; NCCLS document M38-P; NCCLS, Wayne, Pa., USA [1998]), as detailed in H. A. Norris et al., J. Am. Acad. Dermatol. 40 [1999] S9-S13). The MIC is defined as the lowest drug concentration causing 80% inhibition of fungal growth.
Combination studies are performed in a checkerboard design using the above assay to provide a matrix of all possible dose combination of the two drugs within the required concentration range. The matrix structure is provided by the microtiter trays used for the assay. The terbinafine dilution series is arranged on the y-axis (in columns) and the partner drug on the x-axis (in rows). In each row, well no. 1 contains the sterility control, well no. 2 contains terbinafine hydrochloride alone, wells no. 3 to no. 11 contain the dilution series of the partner drug 33-epichloro,33-desoxyascomycin, and well no. 12 contains the growth control. In each column, well A contains the partner drug alone and wells B to H contain the dilution series of terbinafine hydrochloride.
The nature of the interaction between the two drugs is defined quantitatively by means of the Fractional Inhibitory Concentration Index (FICI), which is calculated by the following formula: FICI=[(MIC A in combination)/MIC A]+[(MIC B in combination)/MIC B].
Interpretation of the FICI is: • ≦0.5: synergy; • >0.5 but ≦1: additive; • >1 but ≦2: indifferent; • >2: antagonism.
In practice, synergy calculated in this way is equivalent to a reduction of at least 2 dilution steps in the MIC of each drug when they are combined.

The results in this text go back to patent publication US6919317B2, “Pharmaceutical composition comprising squalene epoxidase inhibitor and macrolide immunomodulator” (priority 2000, dated 2005).

Each structure is given as a SMILES string.

Regarding `CC[C@@H]1/C=C(\C)C[C@H](C)C[C@H](OC)[C@H]2O[C@@](O)(C(=O)C(=O)N3C=CCC[C@H]3C(=O)O[C@H](/C(C)=C/[C@@H]3CC[C@@H](O)[C@H](OC)C3)[C@H](C)[C@@H](O)CC1=O)[C@H](C)C[C@@H]2OC` [5,6-Dehydro-ascomycin, {1R,5Z,9S,12S-[1E-(1R,3R,4R)],13R,14S,17R,18E,21S,23S,24R,25S,27R}-17-ethyl-1,14-dihydroxy-12-[2-(4-hydroxy-3-methoxycyclohexyl)-1-methylvinyl]-23,25-dimethoxy-13,19,21,27-tetramethyl-11,28-dioxa-4-azatricyclo[22.3.1.0(4,9)]octacos-5,18-diene-2,3,10,16-tetraone], in the experiment on Candida albicans, the “Antifungal activity of test compound alone” value (shortened to “Antifungal activity”) is “completely inactive”; the “Interaction with fluconazole, C. albicans” value is reported as “− (−: indifferent/antagonistic)”; the “Interaction with terbinafine, C. albicans” value is reported as “+ (+: additive)”. For the same compound, in the experiment on Candida krusei, the “Antifungal activity” value is “completely inactive”; the “Interaction with terbinafine as reference compound (in words)” value (shortened to “Interaction with terbinafine … (in words)”) was “strongly positive”; the “Interaction with fluconazole, C. krusei” value is given as “− (−: indifferent/antagonistic)”; the “Interaction with terbinafine, C. krusei” value was “− (−: indifferent/antagonistic)”.

Turning to `CC[C@@H]1/C=C(\C)C[C@H](C)C[C@H](OC)[C@H]2O[C@@](O)(C(=O)C(=O)N3CCCC[C@H]3C(=O)O[C@H](/C(C)=C/[C@@H]3CC[C@H](Cl)[C@H](OC)C3)[C@H](C)[C@@H](O)CC1=O)[C@H](C)C[C@@H]2OC` [33-Epichloro,33-desoxy-ascomycin, {[1E-(1R,3R,4S)]1R,9S,12S, 13R,14S,17R,18E, 21S,23S,24R,25S,27R}-12-[2-(4-chloro-3-methoxycyclohexyl)-1-methylvinyl]-17-ethyl-1,14-dihydroxy-23,25-dimethoxy-13,19,21,27-tetramethyl-11,28,dioxa-4-azatricyclo [22.3.1.0(4,9)]octacos-18-ene-2,3,10,16-tetraone], in the experiment with Candida albicans, the “Antifungal activity” value was “completely inactive”; the “Interaction with fluconazole, C. albicans” value is given as “− (−: indifferent/antagonistic)”; the “Interaction with terbinafine, C. albicans” value is listed as “+ (+: additive)”. Further, the FICI in experiment [1] (combination with terbinafine hydrochloride) stood at 0.28. Also, in experiment [1] (combination with terbinafine hydrochloride, ≦0.5: synergy), the “Interpretation (of FICI)” value was “synergy”. Moreover, in experiment [1], the MIC single drug was 64 µg/mL and the MIC combination came out at 16 µg/mL. In the experiment with Candida krusei, the “Antifungal activity” value was “completely inactive”; the “Interaction with terbinafine … (in words)” value is on record as “strongly positive”; the “Interaction with fluconazole, C. krusei” value is “− (−: indifferent/antagonistic)”; the “Interaction with terbinafine, C. krusei” value is listed as “− (−: indifferent/antagonistic)”.

Consider `CC[C@@H]1/C=C(\C)C[C@H](C)C[C@H](OC)[C@H]2O[C@@](O)(C(=O)C(=O)N3CCCC[C@H]3C(=O)O[C@H](/C(C)=C/[C@@H]3CC[C@@H](O)[C@H](OC)C3)[C@H](C)[C@@H](O)CC1=O)[C@H](C)C[C@@H]2OC` [Ascomycin, ascomycin], for which, in the experiment with Candida albicans, the “Antifungal activity” value was “completely inactive”; the “Interaction with fluconazole, C. albicans” value is listed as “− (−: indifferent/antagonistic)”; the “Interaction with terbinafine, C. albicans” value is recorded as “+ (+: additive)”. For the same compound, in the experiment with Candida krusei, the “Antifungal activity” value is “completely inactive”; the “Interaction with terbinafine … (in words)” value was “powerfully synergistic”; the “Interaction with fluconazole, C. krusei” value is recorded as “− (−: indifferent/antagonistic)”; the “Interaction with terbinafine, C. krusei” value is “(* ((*: synergy)”.

`C=CC[C@@H]1/C=C(\C)C[C@H](C)C[C@H](OC)[C@H]2O[C@@](O)(C(=O)C(=O)N3CCCC[C@H]3C(=O)O[C@H](/C(C)=C/[C@@H]3CC[C@@H](O)[C@H](OC)C3)[C@H](C)[C@@H](O)CC1=O)[C@H](C)C[C@@H]2OC` [Tacrolimus, tacrolimus]: in the experiment on Candida albicans, the “Antifungal activity” value is “completely inactive”; the “Interaction with fluconazole, C. albicans” value is “− (−: indifferent/antagonistic)”; the “Interaction with terbinafine, C. albicans” value is recorded as “+ (+: additive)”. Also, in the experiment with Candida krusei, the “Antifungal activity” value is “completely inactive”; the “Interaction with terbinafine … (in words)” value is “powerfully synergistic”; the “Interaction with fluconazole, C. krusei” value is on record as “− (−: indifferent/antagonistic)”; the “Interaction with terbinafine, C. krusei” value was “(* ((*: synergy)”.

Turning to `OC(Cn1cncn1)(Cn1cncn1)c1ccc(F)cc1F` [fluconazole], the “Interaction of fluconazole with the macrolide test compounds (in words)” value in the experiment with Candida albicans (Candida albicans, statement covers both Candida isolates) is listed as “no potent synergy”; in the experiment with Candida krusei (Candida krusei, statement covers both Candida isolates), “no potent synergy”.

Consider `CN(C/C=C/C#CC(C)(C)C)Cc1cccc2ccccc12` [terbinafine, (E)-N-methyl-N-(1-naphthylmethyl)-6,6-dimethylhept-2-en-4-amin], for which, in experiment [1], the MIC single drug was determined as 0.031 µg/mL and the MIC combination worked out at 0.001 µg/mL.
